system: Key Broadleaf Weed and Crop Species; assay: Post-Emergent Test II (Table 5); type: in vivo; conditions: Abutilon theophrasti, post-emergence, 336 h, ABUTH: velvetleaf (Abutilon theophrasti), application rate 70 (kg ai/ha; footnote: g ai/ha), read-out: Visual Growth Reduction (%) 14 Days After Application ABUTH
Summary of the method: (§1)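 Plants at first or second true-leaf stage, grown 7-21 days in greenhouse, were sprayed post-emergence at 187 L/ha with compounds in acetone/DMSO/water/crop oil/surfactant mixture at the high rate and ½× to 1/16× dilutions. Injury scored visually after 14 days, 0 (none) to 100% (complete kill), versus untreated plants.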

SMILES	pest or weed control at 70 g/ha
COC(=O)c1nc(-c2ccc(Cl)c(F)c2OC)c(F)c(N)c1Cl [Compound 39, methyl 4-amino-3-chloro-6-(4-chloro-3-fluoro-2-methoxyphenyl)-5-fluoropicolinate]	95 to 100%

same assay, conditions: Abutilon theophrasti, post-emergence, 336 h, ABUTH: velvetleaf (Abutilon theophrasti), application rate 140 (kg ai/ha; footnote: g ai/ha), read-out: Visual Growth Reduction (%) 14 Days After Application ABUTH

SMILES	pest or weed control at 140 g/ha
COC(=O)c1nc(-c2ccc(Cl)c(F)c2OC)c(F)c(N)c1Cl [Compound 39, methyl 4-amino-3-chloro-6-(4-chloro-3-fluoro-2-methoxyphenyl)-5-fluoropicolinate]	95 to 100%

same assay, conditions: Amaranthus retroflexus, post-emergence, 336 h, AMARE: redroot pigweed (Amaranthus retroflexus), application rate 70 (kg ai/ha; footnote: g ai/ha), read-out: Visual Growth Reduction (%) 14 Days After Application AMARE

SMILES	pest or weed control at 70 g/ha
COC(=O)c1nc(-c2ccc(Cl)c(F)c2OC)c(F)c(N)c1Cl [Compound 39, methyl 4-amino-3-chloro-6-(4-chloro-3-fluoro-2-methoxyphenyl)-5-fluoropicolinate]	95 to 100%

same assay, conditions: Amaranthus retroflexus, post-emergence, 336 h, AMARE: redroot pigweed (Amaranthus retroflexus), application rate 140 (kg ai/ha; footnote: g ai/ha), read-out: Visual Growth Reduction (%) 14 Days After Application AMARE

SMILES	pest or weed control at 140 g/ha
COC(=O)c1nc(-c2ccc(Cl)c(F)c2OC)c(F)c(N)c1Cl [Compound 39, methyl 4-amino-3-chloro-6-(4-chloro-3-fluoro-2-methoxyphenyl)-5-fluoropicolinate]	95 to 100%

same assay, conditions: Brassica napus, post-emergence, 336 h, BRSSS: oilseed rape, canola (Brassica napus), application rate 70 (kg ai/ha; footnote: g ai/ha), read-out: Visual Growth Reduction (%) 14 Days After Application BRSSS

SMILES	pest or weed control at 70 g/ha
COC(=O)c1nc(-c2ccc(Cl)c(F)c2OC)c(F)c(N)c1Cl [Compound 39, methyl 4-amino-3-chloro-6-(4-chloro-3-fluoro-2-methoxyphenyl)-5-fluoropicolinate]	95 to 100%

same assay, conditions: Brassica napus, post-emergence, 336 h, BRSSS: oilseed rape, canola (Brassica napus), application rate 140 (kg ai/ha; footnote: g ai/ha), read-out: Visual Growth Reduction (%) 14 Days After Application BRSSS

SMILES	pest or weed control at 140 g/ha
COC(=O)c1nc(-c2ccc(Cl)c(F)c2OC)c(F)c(N)c1Cl [Compound 39, methyl 4-amino-3-chloro-6-(4-chloro-3-fluoro-2-methoxyphenyl)-5-fluoropicolinate]	95 to 100%

same assay, conditions: Chenopodium album, post-emergence, 336 h, CHEAL: lambsquarters (Chenopodium album), application rate 70 (kg ai/ha; footnote: g ai/ha), read-out: Visual Growth Reduction (%) 14 Days After Application CHEAL

SMILES	pest or weed control at 70 g/ha
COC(=O)c1nc(-c2ccc(Cl)c(F)c2OC)c(F)c(N)c1Cl [Compound 39, methyl 4-amino-3-chloro-6-(4-chloro-3-fluoro-2-methoxyphenyl)-5-fluoropicolinate]	0 to 29%

same assay, conditions: Chenopodium album, post-emergence, 336 h, CHEAL: lambsquarters (Chenopodium album), application rate 140 (kg ai/ha; footnote: g ai/ha), read-out: Visual Growth Reduction (%) 14 Days After Application CHEAL

SMILES	pest or weed control at 140 g/ha
COC(=O)c1nc(-c2ccc(Cl)c(F)c2OC)c(F)c(N)c1Cl [Compound 39, methyl 4-amino-3-chloro-6-(4-chloro-3-fluoro-2-methoxyphenyl)-5-fluoropicolinate]	0 to 29%

same assay, conditions: Euphorbia heterophylla, post-emergence, 336 h, EPHHL: wild poinsettia (Euphorbia heterophylla), application rate 70 (kg ai/ha; footnote: g ai/ha), read-out: Visual Growth Reduction (%) 14 Days After Application EPHHL

SMILES	pest or weed control at 70 g/ha
COC(=O)c1nc(-c2ccc(Cl)c(F)c2OC)c(F)c(N)c1Cl [Compound 39, methyl 4-amino-3-chloro-6-(4-chloro-3-fluoro-2-methoxyphenyl)-5-fluoropicolinate]	45 to 59%

same assay, conditions: Euphorbia heterophylla, post-emergence, 336 h, EPHHL: wild poinsettia (Euphorbia heterophylla), application rate 140 (kg ai/ha; footnote: g ai/ha), read-out: Visual Growth Reduction (%) 14 Days After Application EPHHL

SMILES	pest or weed control at 140 g/ha
COC(=O)c1nc(-c2ccc(Cl)c(F)c2OC)c(F)c(N)c1Cl [Compound 39, methyl 4-amino-3-chloro-6-(4-chloro-3-fluoro-2-methoxyphenyl)-5-fluoropicolinate]	45 to 59%

same assay, conditions: Helianthus annuus, post-emergence, 336 h, HELAN: sunflower (Helianthus annuus), application rate 70 (kg ai/ha; footnote: g ai/ha), read-out: Visual Growth Reduction (%) 14 Days After Application HELAN

SMILES	pest or weed control at 70 g/ha
COC(=O)c1nc(-c2ccc(Cl)c(F)c2OC)c(F)c(N)c1Cl [Compound 39, methyl 4-amino-3-chloro-6-(4-chloro-3-fluoro-2-methoxyphenyl)-5-fluoropicolinate]	95 to 100%

same assay, conditions: Helianthus annuus, post-emergence, 336 h, HELAN: sunflower (Helianthus annuus), application rate 140 (kg ai/ha; footnote: g ai/ha), read-out: Visual Growth Reduction (%) 14 Days After Application HELAN

SMILES	pest or weed control at 140 g/ha
COC(=O)c1nc(-c2ccc(Cl)c(F)c2OC)c(F)c(N)c1Cl [Compound 39, methyl 4-amino-3-chloro-6-(4-chloro-3-fluoro-2-methoxyphenyl)-5-fluoropicolinate]	95 to 100%

same assay, conditions: Viola tricolor, post-emergence, 336 h, VIOTR: wild pansy (Viola tricolor), application rate 70 (kg ai/ha; footnote: g ai/ha), read-out: Visual Growth Reduction (%) 14 Days After Application VIOTR

SMILES	pest or weed control at 70 g/ha
COC(=O)c1nc(-c2ccc(Cl)c(F)c2OC)c(F)c(N)c1Cl [Compound 39, methyl 4-amino-3-chloro-6-(4-chloro-3-fluoro-2-methoxyphenyl)-5-fluoropicolinate]	95 to 100%

same assay, conditions: Viola tricolor, post-emergence, 336 h, VIOTR: wild pansy (Viola tricolor), application rate 140 (kg ai/ha; footnote: g ai/ha), read-out: Visual Growth Reduction (%) 14 Days After Application VIOTR

SMILES	pest or weed control at 140 g/ha
COC(=O)c1nc(-c2ccc(Cl)c(F)c2OC)c(F)c(N)c1Cl [Compound 39, methyl 4-amino-3-chloro-6-(4-chloro-3-fluoro-2-methoxyphenyl)-5-fluoropicolinate]	95 to 100%

system: Key Grass and Sedge Weeds as well as Grass Crops; assay: Post-Emergent Test II (Table 6); type: in vivo; conditions: post-emergence, 336 h, CYPSS, 70 g ai/ha, 14 days after application, read-out: Visual Growth Reduction (%) 14 Days After Application CYPSS
Summary of the method: as §1

SMILES	pest or weed control at 70 g/ha
COC(=O)c1nc(-c2ccc(Cl)c(F)c2OC)c(F)c(N)c1Cl [Compound 39, methyl 4-amino-3-chloro-6-(4-chloro-3-fluoro-2-methoxyphenyl)-5-fluoropicolinate]	45 to 59%

same assay, conditions: post-emergence, 336 h, CYPSS, 140 g ai/ha, 14 days after application, read-out: Visual Growth Reduction (%) 14 Days After Application CYPSS

SMILES	pest or weed control at 140 g/ha
COC(=O)c1nc(-c2ccc(Cl)c(F)c2OC)c(F)c(N)c1Cl [Compound 39, methyl 4-amino-3-chloro-6-(4-chloro-3-fluoro-2-methoxyphenyl)-5-fluoropicolinate]	95 to 100%

same assay, conditions: post-emergence, 336 h, DIGSA: crabgrass (Digitaria sanguinalis), 70 g ai/ha, 14 days after application, read-out: Visual Growth Reduction (%) 14 Days After Application DIGSA

SMILES	pest or weed control at 70 g/ha
COC(=O)c1nc(-c2ccc(Cl)c(F)c2OC)c(F)c(N)c1Cl [Compound 39, methyl 4-amino-3-chloro-6-(4-chloro-3-fluoro-2-methoxyphenyl)-5-fluoropicolinate]	0 to 29%

same assay, conditions: post-emergence, 336 h, DIGSA: crabgrass (Digitaria sanguinalis), 140 g ai/ha, 14 days after application, read-out: Visual Growth Reduction (%) 14 Days After Application DIGSA

SMILES	pest or weed control at 140 g/ha
COC(=O)c1nc(-c2ccc(Cl)c(F)c2OC)c(F)c(N)c1Cl [Compound 39, methyl 4-amino-3-chloro-6-(4-chloro-3-fluoro-2-methoxyphenyl)-5-fluoropicolinate]	0 to 29%

same assay, conditions: post-emergence, 336 h, ECHSS, 70 g ai/ha, 14 days after application, read-out: Visual Growth Reduction (%) 14 Days After Application ECHSS

SMILES	pest or weed control at 70 g/ha
COC(=O)c1nc(-c2ccc(Cl)c(F)c2OC)c(F)c(N)c1Cl [Compound 39, methyl 4-amino-3-chloro-6-(4-chloro-3-fluoro-2-methoxyphenyl)-5-fluoropicolinate]	0 to 29%

same assay, conditions: post-emergence, 336 h, ECHSS, 140 g ai/ha, 14 days after application, read-out: Visual Growth Reduction (%) 14 Days After Application ECHSS

SMILES	pest or weed control at 140 g/ha
COC(=O)c1nc(-c2ccc(Cl)c(F)c2OC)c(F)c(N)c1Cl [Compound 39, methyl 4-amino-3-chloro-6-(4-chloro-3-fluoro-2-methoxyphenyl)-5-fluoropicolinate]	0 to 29%

same assay, conditions: post-emergence, 336 h, ORYSS (crop), 70 g ai/ha, 14 days after application, read-out: Visual Growth Reduction (%) 14 Days After Application ORYSS

SMILES	pest or weed control at 70 g/ha
COC(=O)c1nc(-c2ccc(Cl)c(F)c2OC)c(F)c(N)c1Cl [Compound 39, methyl 4-amino-3-chloro-6-(4-chloro-3-fluoro-2-methoxyphenyl)-5-fluoropicolinate]	0 to 29%

same assay, conditions: post-emergence, 336 h, ORYSS (crop), 140 g ai/ha, 14 days after application, read-out: Visual Growth Reduction (%) 14 Days After Application ORYSS

SMILES	pest or weed control at 140 g/ha
COC(=O)c1nc(-c2ccc(Cl)c(F)c2OC)c(F)c(N)c1Cl [Compound 39, methyl 4-amino-3-chloro-6-(4-chloro-3-fluoro-2-methoxyphenyl)-5-fluoropicolinate]	0 to 29%

same assay, conditions: post-emergence, 336 h, SETFA: giant foxtail (Setaria faberi), 70 g ai/ha, 14 days after application, read-out: Visual Growth Reduction (%) 14 Days After Application SETFA

SMILES	pest or weed control at 70 g/ha
COC(=O)c1nc(-c2ccc(Cl)c(F)c2OC)c(F)c(N)c1Cl [Compound 39, methyl 4-amino-3-chloro-6-(4-chloro-3-fluoro-2-methoxyphenyl)-5-fluoropicolinate]	0 to 29%

same assay, conditions: post-emergence, 336 h, SETFA: giant foxtail (Setaria faberi), 140 g ai/ha, 14 days after application, read-out: Visual Growth Reduction (%) 14 Days After Application SETFA

SMILES	pest or weed control at 140 g/ha
COC(=O)c1nc(-c2ccc(Cl)c(F)c2OC)c(F)c(N)c1Cl [Compound 39, methyl 4-amino-3-chloro-6-(4-chloro-3-fluoro-2-methoxyphenyl)-5-fluoropicolinate]	75 to 84%

same assay, conditions: post-emergence, 336 h, SORVU: grain sorghum (Sorghum vulgare), 70 g ai/ha, 14 days after application, read-out: Visual Growth Reduction (%) 14 Days After Application SORVU

SMILES	pest or weed control at 70 g/ha
COC(=O)c1nc(-c2ccc(Cl)c(F)c2OC)c(F)c(N)c1Cl [Compound 39, methyl 4-amino-3-chloro-6-(4-chloro-3-fluoro-2-methoxyphenyl)-5-fluoropicolinate]	0 to 29%

same assay, conditions: post-emergence, 336 h, SORVU: grain sorghum (Sorghum vulgare), 140 g ai/ha, 14 days after application, read-out: Visual Growth Reduction (%) 14 Days After Application SORVU

SMILES	pest or weed control at 140 g/ha
COC(=O)c1nc(-c2ccc(Cl)c(F)c2OC)c(F)c(N)c1Cl [Compound 39, methyl 4-amino-3-chloro-6-(4-chloro-3-fluoro-2-methoxyphenyl)-5-fluoropicolinate]	0 to 29%

same assay, conditions: post-emergence, 336 h, TRZSS (crop), 70 g ai/ha, 14 days after application, read-out: Visual Growth Reduction (%) 14 Days After Application TRZSS

SMILES	pest or weed control at 70 g/ha
COC(=O)c1nc(-c2ccc(Cl)c(F)c2OC)c(F)c(N)c1Cl [Compound 39, methyl 4-amino-3-chloro-6-(4-chloro-3-fluoro-2-methoxyphenyl)-5-fluoropicolinate]	30 to 44%

same assay, conditions: post-emergence, 336 h, TRZSS (crop), 140 g ai/ha, 14 days after application, read-out: Visual Growth Reduction (%) 14 Days After Application TRZSS

SMILES	pest or weed control at 140 g/ha
COC(=O)c1nc(-c2ccc(Cl)c(F)c2OC)c(F)c(N)c1Cl [Compound 39, methyl 4-amino-3-chloro-6-(4-chloro-3-fluoro-2-methoxyphenyl)-5-fluoropicolinate]	30 to 44%

same assay, conditions: post-emergence, 336 h, ZEAMX: maize, corn (Zea mays), 70 g ai/ha, 14 days after application, read-out: Visual Growth Reduction (%) 14 Days After Application ZEAMX

SMILES	pest or weed control at 70 g/ha
COC(=O)c1nc(-c2ccc(Cl)c(F)c2OC)c(F)c(N)c1Cl [Compound 39, methyl 4-amino-3-chloro-6-(4-chloro-3-fluoro-2-methoxyphenyl)-5-fluoropicolinate]	0 to 29%

same assay, conditions: post-emergence, 336 h, ZEAMX: maize, corn (Zea mays), 140 g ai/ha, 14 days after application, read-out: Visual Growth Reduction (%) 14 Days After Application ZEAMX

SMILES	pest or weed control at 140 g/ha
COC(=O)c1nc(-c2ccc(Cl)c(F)c2OC)c(F)c(N)c1Cl [Compound 39, methyl 4-amino-3-chloro-6-(4-chloro-3-fluoro-2-methoxyphenyl)-5-fluoropicolinate]	60 to 74%

Source: US10765114B2, “4-amino-6-(pyridyl and 2-substitutedphenyl)-picolinates and 6-amino-2-(pyridyl and 2-substitutedphenyl)-pyrimidine-4-carboxylates and their use as herbicides” (Dow AgroSciences LLC, priority 2013, dated 2020)
